From patent US7618790B2, “Method for NGF assay for in vitro diagnosis of breast cancer and therapeutic use” (Biomerieux, priority 2002, dated 2009)

What was measured:
PC12 cells = test: Coculture of NGF-sensitive PC12 cells with MCF-7 breast cancer cells (neurite differentiation); assay type: cell-based
Experimental: To do this, cells which develop in the presence of NGF, i.e. PC12 cells, were cocultured with MCF-7 breast cancer cells, as described in point 1.1 above, or else with NBEC cells, as described in point 1.1 above, as a control.
The PC12 cells were cultured beforehand at 37° C. in a 5% CO2 atmosphere, in Dulbecco's modified minimum essential medium (DMEM) supplemented with 3 g/l of sodium bicarbonate, 4 mM of L-glutamine, 10% of fetal calf serum, 5% of horse serum and 100 units/ml of penicillin/streptomycin.
The coculturing was carried out with Transwell® tissue culture-treated polycarbonate plates (12 mm in diameter and 12 μm pore size). An initial equilibrating period was observed by adding the media to the central well of the plate, and then to the Transwell® insert, which operation was followed by incubation at 37° C. for 3 h.
The PC12 cells were seeded in 12-well plates coated with collagen for 24 h in order to ensure correct attachment to the culture plates. The MCF-7 or NCBE cells were seeded inside the Transwell® insert, corresponding to the upper compartment, in the complete medium for 24 h. After this time, each cell line was rinsed three times with serum-free medium and was incubated in a withdrawal medium. […] The percentage of cells bearing neurites, defined as cells with one or more neurite extensions twice the length of the cell body, was counted. […]

MCF-7 cells = test: Growth of MCF-7 cancer cells (cell count with hemocytometer); assay type: cell-based, human; settings: serum-free basic medium, 24-72 h, FIG. 4A
Experimental: The effect of the blocking antibody MAB-256 (above) and of the inhibitor K-252a on the growth of MCF-7 cells was studied. To do this, the cells were seeded in a proportion of 2×10^4 cells/ml in 35 mm dishes in complete medium. After having reached 40% confluency, the cells were washed twice and were left without nutrients in a serum-free medium containing fibronectin (2 μg/ml) and transferrin (30 μg/ml) for 3 h. The following hour, the medium was replaced with 2 ml of the same medium containing the inhibitor K-252a or the antibody […] at various concentrations in order to study the effect of the pharmacological inhibitor or of the blocking inhibitor on the base line growth level. After treatment for 24, 36, 48 and 72 h, the number of cells was determined, after trypsinization of the monolayer culture with a solution of 0.25% trypsin/EDTA, using a hemocytometer. An anti-mouse monoclonal antibody ([…], Sigma), i.e. an irrelevant antibody, was also used in order to determine the specificity of the blocking antibody.

“NGF: nerve growth factor added to the medium as positive control for PC12 differentiation” was tested, and the “PC12 cell differentiation (neurite development)” value (PC12 cells; culture of PC12 cells alone as a control, in the presence of NGF, FIG. 2B photograph 3) was “neurite development due to differentiation is observed”.

With `COC(=O)[C@@]1(O)C[C@H]2O[C@]1(C)n1c3ccccc3c3c4c(c5c6ccccc6n2c5c31)C(=O)NC4` [K-252a] the “growth of the MCF-7 cells (number of cells)” value (MCF-7 cells) was “decreases” and the “PC12 cell differentiation (cells bearing neurites)” value (PC12 cells; coculture of MCF-7 and PC12 cells, 48 h, FIG. 2B) was “strong inhibition of the PC12 cell differentiation”.
